Laboratory results: patent US20240294550A1, “8-OXA-3-AZABICYCLO[3.2.1]OCTANE COMPOUNDS OR SALT THEREOF, AND PREPARATION METHOD AND USE THEREOF” (LITTDD MEDICINES LTD, priority 2021, published 2024)
Values after ≈ are worked out from the molar mass of the structure shown. Where two headings read alike, the source gives them in different places.

How the values were obtained:
[1] = Pharmacokinetic (PK) assay in mice; type: in vivo; conditions: CD-1 mice; for half-life / Vd / bioavailability / C0 / AUC(0-t) / Cmax: mouse, plasma; for Vd: read-out: Vss; for bioavailability: Po dose 5 mg/kg vs IV dose 1 mg/kg; for AUC(0-t): read-out: AUC0-24 h
Protocol: The PK of each compound was determined as follows: 6 CD-1 mice (obtained from Shanghai Lingchang Biotechnology Co., Ltd.) were divided into two groups, 3 mice in each group. […] Blood samples were collected from saphenous vein of lower leg in each group at 0, 0.083, 0.25, 0.5, 1, 2, 4, 6, 8 and 24 h after administration. Approximately 40 μL of the blood samples were collected in anticoagulant tubes containing EDTA-K2. Immediately after collection, the tubes were inverted at least 5 times to ensure adequate mixing, and then placed on ice. The blood samples collected at each time point were centrifuged at 4° C., 8000 rpm for 5 minutes to obtain plasma. Another 1.5 mL centrifuge tube was marked with the compound name, animal number, and time point, and the plasma was transferred to this tube. The plasma was stored at −80° C. until analysis.
Compound concentrations in plasma were determined by UPLC-MS/MS method, and the pharmacokinetic parameters were calculated by Phoenix WinNolin 6.4 pharmacokinetic software on the obtained data.

ATR = ATR (Homo sapiens (Human), UniProt Q13535); test: ATR kinase inhibition assay (HTRF); type: biochemical; conditions: p53 substrate, ATP 150 nM
Protocol: This experiment adopted Homogeneous time-resolved fluorescence technology (HTRF®) of Cisbio Company for assay.
Experiment method: buffers were prepared as follows:
Preparation of solutions of the test compounds: The example compounds shown in the table below were prepared into solutions using DMSO as solvent, the stock solution typically being 10 mM. The maximum starting concentration in this experiment was 3 μM, DMSO 3-fold serial dilutions for concentrations, the serially diluted solution was added to each well of the corresponding 384-well plate (geriner bio-one, Cat #784075) to give final concentrations of 3000, 1000, 333, 111, 37, 12.3, 4.12, 1.37, 0.457, 0.152 nM, respectively, and the corresponding amount of DMSO was added to the additional wells to be used as negative or positive control wells, respectively.
The enzyme and substrate were separately dissolved and diluted in two tubes with the buffer prepared above at the following concentrations:
5 μL of the ATR protein solution from tube A was added to the compound-containing wells and the negative control wells in the assay plates using an electric multichannel pipettor, and the same volume of the prepared buffer (medium only, no enzyme) was added to the positive control wells. The plates were centrifuged for one minute at 1000 rpm, and then placed in an incubator at 25° C. for 15 minutes. 5 μL of the substrate mix solution from tube B was added to the positive control well, negative control well and the compound-containing well of the assay plates in the same manner, centrifuged and incubated at 25° C. for 90 minutes.
During the reaction, after ATR phosphorylated the substrate p53, two antibodies were added. Among them, anti-phospho-p53-Eu, as an energy donor, can specifically bind to the phosphorylation site of p53, while anti-GST-d2, as an energy receptor, can specifically bind to the GST-tagged p53. Upon excitation by a laser with certain wavelength (the excitation wavelength in this experiment is 340 nm), the energy donor can emit emission light of 615 nm, and when the energy donor and the energy receptor are close enough in space (that is, two antibodies are connected to p53 at the same time), energy transfer can occur between the energy donor and the energy receptor, so that the energy receptor can emit emission light of 665 nm. The two emission lights were detected by a plate reader, and the ratio of the signals at 665 nm and 615 nm was calculated. The IC50 of the samples tested can be obtained by plotting and calculation.
10 μL per well of the detection solution was added to the positive control, negative control and compound wells of the assay plate using an electric multichannel pipette, centrifuged and incubated overnight at 4° C., and read with the plate reader Envision 2104.
Compound inhibition rate was calculated using interpolation. The mean values of the positive and negative controls were calculated respectively, and the following formula was used to calculate the inhibition rates of the compounds:
Inhibition rate Minimum response+(Compound concentration ^Curve slope)*(Maximum response−Minimum response)/(Compound concentration^Curve slope+Half inhibition concentration ^Curve slope)
The IC50 value of each compound to enzyme activity was obtained.

[2] = Equilibrium solubility in FaSSIF; type: physicochemical; conditions: thermodynamic from solid; FaSSIF pH 6.5, shaken 24 hours
Protocol: The compound powder was weighed into a volumetric flask, 450 μL of pH 6.5 FaSSIF solution was added to obtain a supersaturated suspension, the samples were vortexed for at least 2 minutes, and the volumetric flasks were shaken on a vibrating screen at 800 rpm for 24 hours, and then centrifuged at 4000 rpm for 20 minutes. The compressed filtrate was added to a HPLC system, and the concentrations were calculated by a standard curve method.

LOVO cells = test: Cell proliferation assay (CellTiter-Glo); type: cell-based; conditions: Homo sapiens, 96 hours
Protocol: The cell proliferation inhibition effect of the compound of the invention was tested using CellTiter-Glo™ cell viability assay kit. This kit uses luciferase as the detector. During the luminescence process, the luciferase requires the participation of ATP. CellTiter-Glo™ reagent was added to the cell culture medium, and the luminescence value was measured. The light signal is proportional to the amount of ATP present in the system, and ATP positively correlates with the number of viable cells present, thus the cell proliferation activity is measured.
Cell culture and seeding: LOVO cells in logarithmic growth phase (human colon carcinoma cells) (ATCC CCL-229) were harvested and counted using a platelet counter. Trypan blue exclusion method was used to detect the cell viability to ensure that the cell viability was above 90%. 90 μL of cell suspension (RPMI1640+10% fetal bovine serum) was added to a 96-well transparent flat-bottom black-wall plate (Thermo, 165305) respectively, and the cell concentration was adjusted to 3000/well/90 μl. Cells in the 96-well plate were incubated overnight at 37° C., 5% CO2 with 95% humidity (Thermo, Model 3100 Series).
Firstly, DMSO was used as the solvent to prepare 10 mM mother solution of the test compounds, and then PBS was used to dilute 100 times to prepare a solution of 10 times of final concentration, the highest concentration was 100 μM. 10 μL solution of the test compounds was added to each well of the 96 well plate inoculated with cells, namely the solution was further diluted 10 times to reach the final concentration of 10 μM. Starting from 10 μM, the final concentration of the test compound was 3-fold serially diluted, with 9 concentrations in total with 3 triplicates for each concentration. The 96 well plates with the test compounds and cells were incubated at 37° C., 5% CO2 and 95% humidity for 96 hours, and then CellTiter Glo analysis was performed.
CellTiter-Glo Reagents (CellTiter Glo R Luminescent Cell Viability Assay, Promega, G7572) were melted and the 96-well plates were equilibrated to room temperature for 30 minutes. An equal volume of CellTiter-Glo solution was added to each well, and the cells were lysed by shaking on the fixed orbit shaker for 5 minutes. The assay plates were left at room temperature for 20 minutes to stabilize the luminescence signal, and the luminescence signals were read using the SpectraMax multi-labeled microplate detector (MD, M3).
Data were analyzed using GraphPad Prism 7.0 software, fitted with non-linear S-curve regression to derive the dose-response curves, and IC50 values were calculated therefrom.
Cell survival rate (%)=(LumDrug to be tested−LumCulture medium control)/(LumCell control−LumCulture medium control)×100%

[3] = Metabolic stability in mouse liver microsomes; type: in vitro ADME, CD-1 mice; conditions: for half-life at 1 μM: CD-1, 1 μM compound; for microsomal CLint at 1 μM: CD-1, read-out: CLint(mic)
Protocol: (§1) Drug-like Properties: Concepts, Structure Design and Methods: from ADME to Toxicity Optimization. […] Screen. […] After incubation for appropriate time (such as 5, 10, 20, 30 and 60 minutes), samples were collected, and an appropriate termination solution (glacial acetonitrile containing 200 ng/mL tolbutamide and 200 ng/mL labetalol (i.e. acetonitrile at 4° C.)) was added to stop the reaction. Sample treatment (n=1): each appropriate sample was added, vortexed and centrifuged at high speed. The supernatants were collected, and detected the substrate by HPLC-MS/MS. The peak area at the 0 min was set as 100%. The peak areas at other time points were converted to percentages of the remaining amount. The natural logarithms of the percentage of remaining amount at each time point was plotted against the incubation time, and the slope (−k) was calculated. Then, Clint (μL/min/mg) and half-life (T½, min) of the compounds were calculated following the equation: Inherent clearance rate (Clint)=(k*Volume of incubation solution)/Mass of liver microsomes.

[4] = Metabolic stability in human liver microsomes; type: in vitro ADME; conditions: for half-life at 1 μM: 1 μM compound; for microsomal CLint at 1 μM: read-out: CLint(mic)
Protocol: as §1

Sequence of ATR (Q13535 whole entry): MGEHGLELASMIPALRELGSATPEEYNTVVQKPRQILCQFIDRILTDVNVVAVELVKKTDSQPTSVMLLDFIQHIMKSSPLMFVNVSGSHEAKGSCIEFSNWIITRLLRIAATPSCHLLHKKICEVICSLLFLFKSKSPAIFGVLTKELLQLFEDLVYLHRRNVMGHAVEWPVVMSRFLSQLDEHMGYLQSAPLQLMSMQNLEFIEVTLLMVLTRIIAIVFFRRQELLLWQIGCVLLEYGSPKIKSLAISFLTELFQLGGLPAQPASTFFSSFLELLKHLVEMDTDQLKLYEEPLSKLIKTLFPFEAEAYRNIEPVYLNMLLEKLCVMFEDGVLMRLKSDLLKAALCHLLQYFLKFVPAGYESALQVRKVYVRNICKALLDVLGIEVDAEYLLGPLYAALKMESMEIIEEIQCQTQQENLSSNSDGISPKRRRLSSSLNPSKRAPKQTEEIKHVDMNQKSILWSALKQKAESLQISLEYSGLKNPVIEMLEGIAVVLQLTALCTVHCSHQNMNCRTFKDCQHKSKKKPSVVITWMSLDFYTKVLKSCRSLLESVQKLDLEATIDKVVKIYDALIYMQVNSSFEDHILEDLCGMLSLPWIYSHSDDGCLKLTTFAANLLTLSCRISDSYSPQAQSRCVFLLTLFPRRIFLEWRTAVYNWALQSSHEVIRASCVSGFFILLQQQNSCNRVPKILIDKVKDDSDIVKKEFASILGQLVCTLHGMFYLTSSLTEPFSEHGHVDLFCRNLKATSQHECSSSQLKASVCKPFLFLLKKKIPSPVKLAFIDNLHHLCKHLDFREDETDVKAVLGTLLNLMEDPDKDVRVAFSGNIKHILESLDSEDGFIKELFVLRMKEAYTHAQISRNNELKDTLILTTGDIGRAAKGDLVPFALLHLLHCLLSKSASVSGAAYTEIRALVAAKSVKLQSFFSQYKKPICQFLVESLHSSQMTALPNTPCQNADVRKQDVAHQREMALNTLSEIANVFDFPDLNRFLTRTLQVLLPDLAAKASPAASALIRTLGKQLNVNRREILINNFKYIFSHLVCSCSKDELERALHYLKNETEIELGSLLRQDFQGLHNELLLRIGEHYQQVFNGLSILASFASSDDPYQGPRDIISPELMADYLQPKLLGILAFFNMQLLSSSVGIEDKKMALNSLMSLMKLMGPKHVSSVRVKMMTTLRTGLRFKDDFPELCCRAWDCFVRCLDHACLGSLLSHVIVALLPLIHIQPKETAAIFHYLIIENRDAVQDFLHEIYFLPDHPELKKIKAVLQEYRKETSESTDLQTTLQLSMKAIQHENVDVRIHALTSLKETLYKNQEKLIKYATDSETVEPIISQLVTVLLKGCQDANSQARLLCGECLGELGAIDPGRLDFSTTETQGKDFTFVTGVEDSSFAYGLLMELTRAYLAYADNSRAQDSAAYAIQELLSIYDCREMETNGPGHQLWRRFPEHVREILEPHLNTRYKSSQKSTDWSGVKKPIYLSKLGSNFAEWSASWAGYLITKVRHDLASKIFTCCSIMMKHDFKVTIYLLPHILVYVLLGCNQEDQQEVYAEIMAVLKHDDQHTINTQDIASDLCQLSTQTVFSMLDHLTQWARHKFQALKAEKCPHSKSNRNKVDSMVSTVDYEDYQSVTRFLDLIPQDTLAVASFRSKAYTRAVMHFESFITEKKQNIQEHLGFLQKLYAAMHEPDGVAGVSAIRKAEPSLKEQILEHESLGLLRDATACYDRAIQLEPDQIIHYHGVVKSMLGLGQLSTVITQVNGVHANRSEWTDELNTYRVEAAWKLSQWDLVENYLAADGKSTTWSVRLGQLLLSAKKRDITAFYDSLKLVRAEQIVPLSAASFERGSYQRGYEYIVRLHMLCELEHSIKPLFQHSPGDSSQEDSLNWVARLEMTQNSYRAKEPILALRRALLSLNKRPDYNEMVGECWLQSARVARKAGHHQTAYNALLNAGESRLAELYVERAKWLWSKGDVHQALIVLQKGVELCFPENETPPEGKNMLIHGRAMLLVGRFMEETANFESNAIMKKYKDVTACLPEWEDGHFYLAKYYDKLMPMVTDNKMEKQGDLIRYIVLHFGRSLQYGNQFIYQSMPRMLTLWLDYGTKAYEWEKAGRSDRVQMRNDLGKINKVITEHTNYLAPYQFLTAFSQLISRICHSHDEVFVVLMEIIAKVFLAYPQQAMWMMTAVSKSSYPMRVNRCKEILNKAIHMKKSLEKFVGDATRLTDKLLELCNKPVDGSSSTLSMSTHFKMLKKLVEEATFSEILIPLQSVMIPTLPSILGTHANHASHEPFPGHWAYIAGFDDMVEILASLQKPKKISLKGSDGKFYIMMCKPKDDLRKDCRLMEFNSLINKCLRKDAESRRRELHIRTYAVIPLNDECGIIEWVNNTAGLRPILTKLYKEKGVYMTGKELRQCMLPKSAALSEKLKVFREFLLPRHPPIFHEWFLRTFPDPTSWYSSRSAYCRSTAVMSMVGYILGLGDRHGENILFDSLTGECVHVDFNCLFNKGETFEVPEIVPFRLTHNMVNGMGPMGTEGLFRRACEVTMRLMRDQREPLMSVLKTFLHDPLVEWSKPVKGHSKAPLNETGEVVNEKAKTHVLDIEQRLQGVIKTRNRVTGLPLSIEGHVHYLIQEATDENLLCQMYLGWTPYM
Sequence of ATR (Q8WXE1 whole entry partner): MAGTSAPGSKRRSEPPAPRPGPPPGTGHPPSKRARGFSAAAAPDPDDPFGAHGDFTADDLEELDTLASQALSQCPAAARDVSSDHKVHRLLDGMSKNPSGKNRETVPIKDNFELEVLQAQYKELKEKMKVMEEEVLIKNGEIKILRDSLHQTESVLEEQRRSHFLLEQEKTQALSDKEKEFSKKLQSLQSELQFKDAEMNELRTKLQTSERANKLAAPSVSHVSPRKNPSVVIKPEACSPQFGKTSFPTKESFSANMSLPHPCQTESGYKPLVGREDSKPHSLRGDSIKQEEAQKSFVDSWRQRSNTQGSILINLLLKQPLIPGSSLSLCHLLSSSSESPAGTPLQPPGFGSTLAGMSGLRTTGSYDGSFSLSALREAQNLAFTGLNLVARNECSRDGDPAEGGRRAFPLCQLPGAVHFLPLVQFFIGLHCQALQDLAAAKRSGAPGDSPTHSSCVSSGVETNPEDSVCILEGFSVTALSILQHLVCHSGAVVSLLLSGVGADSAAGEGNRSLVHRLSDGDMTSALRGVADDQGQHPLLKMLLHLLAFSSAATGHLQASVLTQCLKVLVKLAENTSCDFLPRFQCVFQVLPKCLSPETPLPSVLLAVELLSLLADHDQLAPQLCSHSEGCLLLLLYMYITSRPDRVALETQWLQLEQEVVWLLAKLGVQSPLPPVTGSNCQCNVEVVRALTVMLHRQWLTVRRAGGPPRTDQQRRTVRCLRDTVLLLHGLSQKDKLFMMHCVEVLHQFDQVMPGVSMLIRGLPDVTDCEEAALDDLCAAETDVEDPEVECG

For `C[C@@H]1COCCN1c1cc(N2CC3CCC(C2)O3)nn2c(-c3cc[nH]n3)ncc12` [Example 3, 3-(4-((R)-3-methylmorpholino)-7-(1H-pyrazol-3-yl)imidazo[1,5-b]pyridazin-2-yl)-8-oxa-3-azabicyclo[3.2.1]octane], the CL_obs ([1]; IV dose 1 mg/kg) was 10.0 mL/min/kg, the half-life ([1]; IV dose 1 mg/kg) was 7.56 h and the Vd ([1]; IV dose 1 mg/kg) was 1.03 L/kg. The half-life ([1]; Po dose 5 mg/kg) was 3.99 h, the bioavailability [1] was 77.5% and the C0 ([1]; IV dose 1 mg/kg) was 2860 ng/mL. For the same compound, the AUC(0-t) ([1]; IV dose 1 mg/kg) was 1650 ng·h/mL, the Cmax ([1]; Po dose 5 mg/kg) was 3150 ng/mL and the AUC(0-t) ([1]; Po dose 5 mg/kg) was 6460 ng·h/mL. The IC50 (ATR) was 5.9 nM, the solubility at 24 h [2] was 1140 µg/mL (≈ 2890 µM) and the IC50 (LOVO cells) was 67 nM.

In the case of `C[C@@H]1COCCN1c1cc(N2CC3CCC(C2)O3)nc2c1cnn2-c1cc[nH]n1` [Example 5, 3-(4-((R)-3-methylmorpholino)-1-(1H-pyrazol-3-yl)-1H-pyrazolo[3,4-b]pyridin-6-yl)-8-oxa-3-azabicyclo[3.2.1]octane], the CL_obs ([1]; IV dose 1 mg/kg) is reported as 6.15 mL/min/kg, the half-life ([1]; IV dose 1 mg/kg) is reported as 3.45 h and the Vd ([1]; IV dose 1 mg/kg) is reported as 0.75 L/kg. It also gave a half-life ([1]; Po dose 5 mg/kg) of 2.58 h, a bioavailability [1] of 69% and a C0 ([1]; IV dose 1 mg/kg) of 2180 ng/mL. For the same compound, the AUC(0-t) ([1]; IV dose 1 mg/kg) was 2700 ng·h/mL, the Cmax ([1]; Po dose 5 mg/kg) was 3020 ng/mL and the AUC(0-t) ([1]; Po dose 5 mg/kg) was 9330 ng·h/mL. The IC50 (ATR) was 8.2 nM, the half-life at 1 μM [3] was 1.12 h and the microsomal CLint at 1 μM [3] was 20.5 µL/min/mg. For the same compound, the “Remain % (T = 60 min)” value [3] was 56.6%, the half-life at 1 μM [4] was > 2.42 h and the “Remain % (T = 60 min)” value [4] was 77.1%. For the same compound, the microsomal CLint at 1 μM [4] was < 9.6 µL/min/mg and the IC50 (LOVO cells) was 384 nM.

With `c1cc(-c2ncc3c(N4CC5CCC(C4)O5)cc(N4CC5CCC(C4)O5)nn23)n[nH]1` [Example 6, 3-(4-(8-oxa-3-azabicyclo[3.2.1]octan-3-yl)-7-(1H-pyrazol-3-yl)imidazo[1,5-b]pyridazin-2-yl)-8-oxa-3-azabicyclo[3.2.1]octane] the IC50 (ATR) was 13.2 nM, the half-life at 1 μM [3] was 0.56 h and the microsomal CLint at 1 μM [3] was 41.3 µL/min/mg. The “Remain % (T = 60 min)” value [3] was 30.7%, the half-life at 1 μM [4] was > 2.42 h and the “Remain % (T = 60 min)” value [4] was 74.8%. For the same compound, the microsomal CLint at 1 μM [4] was < 9.6 µL/min/mg and the IC50 (LOVO cells) was 97 nM.

Work on `Cn1nccc1-c1cc(N2CC3CCC(C2)O3)nc2c(-c3cc[nH]n3)cnn12` [Example 26, 3-(7-(1-methyl-1H-pyrazol-5-yl)-3-(1H-pyrazol-3-yl)pyrazolo[1,5-a]pyrimidin-5-yl)-8-oxa-3-azabicyclo[3.2.1]octane] yielded an IC50 (ATR) of 57.7 nM and an IC50 (LOVO cells) of 1270 nM.

For `C[C@@H]1CN(c2cc(N3CC4CCC(C3)O4)nn3c(-c4cc[nH]n4)ncc23)C[C@H](C)O1` [Example 16, 3-(4-(cis-2,6-dimethylmorpholino)-7-(1H-pyrazol-3-yl)imidazo[1,5-b]pyridazin-2-yl)-8-oxa-3-azabicyclo[3.2.1]octane], the IC50 (ATR) was 21.9 nM and the IC50 (LOVO cells) was 310 nM.

`CC1(C)COCCN1c1cc(N2CC3CCC(C2)O3)nc2c(-c3ccn[nH]3)cnn12` [Example 36, 3-(7-(3,3-dimethylmorpholino)-3-(1H-pyrazol-5-yl)pyrazolo[1,5-a]pyrimidin-5-yl)-8-oxa-3-azabicyclo[3.2.1]octane] showed an IC50 (ATR) of 6.2 nM and an IC50 (LOVO cells) of 148 nM.

Compound `CC(=O)N1CCN(c2cc(N3C[C@H]4CC[C@@H](C3)O4)nc3c2cnn3-c2cc[nH]n2)[C@H](C)C1` [Example 34, 1-((R)-4-(6-((1R,5S)-8-oxa-3-azabicyclo[3.2.1]octan-3-yl)-1-(1H-pyrazol-3-yl)-1H-pyrazolo[3,4-b]pyridin-4-yl)-3-methylpiperazin-1-yl)ethan-1-one] has an IC50 (ATR) of 7.6 nM and an IC50 (LOVO cells) of 424 nM.

With `CC(=O)N1CCN(c2cc(N3C[C@H]4CC[C@@H](C3)O4)nn3c(-c4cc[nH]n4)ncc23)[C@H](C)C1` [Example 29, 1-((R)-4-(2-((1R,5S)-8-oxa-3-azabicyclo[3.2.1]octan-3-yl)-7-(1H-pyrazol-3-yl)imidazo[1,5-b]pyridazin-4-yl)-3-methylpiperazin-1-yl)ethan-1-one] the IC50 (ATR) was 4.5 nM and the IC50 (LOVO cells) was 488 nM.
